Experimental data from patent publication US8425917B2 (priority 2001, dated 2013).
Entries after “also recorded” stand apart in the source; their conditions may differ. Where two headings read alike, the source gives them in different places. Square brackets hold non-standard residues; d marks the D form. Peptide text beside a SMILES is read from it. * marks the point of attachment. Sta = CC(C)C[C@H](N)[C@@H](O)CC(=O)O; Isovaleryl = CC(C)CC(=O)*; Cbz = O=C(OCc1ccccc1)*

Experiments:
Assay type in all cases: cell-based, mouse (C57BL/6)
[1] = test system: EtxB-mediated epitope delivery in JAWSII cells
[2] = test system: EtxB-mediated epitope delivery in JAWSII cells; remark: listed apart in the source
JAWSII cells = test system: JAWSII cells
JAWSII dendritic cells = test system: JAWSII dendritic cells
[3] = test system: MHC-I/SIINFEKL complex on JAWSII cells

c1cnc2c(c1)ccc1cccnc12 [1,10-phenanthroline]
effect on EtxB-mediated epitope presentation (conjugate not specified) [1]: found to inhibit

CC(C)C[C@@H](C=O)NC(=O)[C@H](CC(C)C)NC(=O)[C@H](CC(C)C)NC(=O)OCc1ccccc1 [MG132] (Cbz-Leu-Leu-Leu-aldehyde)
effect on direct loading and presentation of free 8mer peptide [1]: failed to prevent
effect on epitope presentation by EtxB-19mer [1]: failed to prevent
effect on epitope presentation by EtxB-31mer [1]: completely blocked

CC(C)C[C@H](NC(=O)[C@@H](O)[C@H](N)Cc1ccccc1)C(=O)O [bestatin]
effect on EtxB-mediated epitope presentation (conjugate not specified) [1]: no significant effects

CC[C@H](C)[C@H](NC(=O)[C@H]([C@@H](C)CC)N(C)C(C)=O)C(=O)N[C@H](C(=O)N[C@@H](CC(C)C)C(=O)[C@@]1(C)CO1)[C@@H](C)O [epoxomicin]
effect on direct loading and presentation of free 8mer peptide [1]: no inhibition of epitope presentation was observed
effect on epitope presentation by EtxB-19mer [1]: no inhibition of epitope presentation was observed
effect on epitope presentation by EtxB-31mer [1]: completely blocked
effect on epitope presentation by EtxB-19mer [2]: no inhibition of epitope presentation was observed
effect on epitope presentation by EtxB-31mer [2]: completely blocked
effect on MHC-I/SIINFEKL staining in cells treated with EtxB-19mer (JAWSII cells): normal co-localisation of WGA and MHC-I/SIINFEKL complexes was observed
effect on MHC-I/SIINFEKL staining in cells treated with EtxB-31mer (JAWSII cells): no staining with MHC-I/SIINFEKL-specific antibodies was obtained

CC(=O)N[C@@H](CSC(=O)[C@]1([C@@H](O)C(C)C)NC(=O)[C@H](C)[C@@H]1O)C(=O)O [lactacystin]
effect on direct loading and presentation of free 8mer peptide [1]: failed to prevent
effect on epitope presentation by EtxB-19mer [1]: failed to prevent
effect on epitope presentation by EtxB-31mer [1]: completely blocked

CC(=O)N[C@@H](CC(C)C)C(=O)N[C@@H](CC(C)C)C(=O)N[C@H](C=O)CCCNC(=N)N [leupeptin]
effect on EtxB-mediated epitope presentation (conjugate not specified) [1]: no significant effects

CC[C@@]1([C@@H]2O[C@@H]([C@H]3O[C@@](O)(CO)[C@H](C)C[C@@H]3C)C[C@@H]2C)CC[C@H]([C@]2(C)CC[C@]3(C[C@H](O)[C@@H](C)[C@@H]([C@@H](C)[C@@H](OC)[C@H](C)C(=O)O)O3)O2)O1 [monensin]
effect on EtxB-mediated epitope presentation (conjugate not specified) [1]: prevented; also recorded: inhibited
effect on direct loading and presentation of free 8mer peptide [1]: unaffected

CC(C)CC(=O)N[C@H](C(=O)N[C@H](C(=O)N[C@@H](CC(C)C)[C@@H](O)CC(=O)N[C@@H](C)C(=O)N[C@@H](CC(C)C)[C@@H](O)CC(=O)O)C(C)C)C(C)C [pepstatin] (Isovaleryl-VV[Sta]A[Sta]-OH)
effect on extent of EtxB-mediated presentation of the 26mer peptide [1]: no effect

Bafilomycin A1 [BafA1]
effect on EtxB-mediated epitope presentation (conjugate not specified) [1]: inhibited
effect on direct loading and presentation of free 8mer peptide [1]: did not inhibit
effect on epitope delivery by EtxB-9mer, -16mer, -19mer, -26mer and -26mer* conjugates [1]: complete inhibition
effect on epitope presentation by EtxB-31mer [1]: prevented
effect on epitope delivery by EtxB-9mer, -16mer, -19mer, -26mer and -26mer* conjugates [2]: complete inhibition
effect on epitope presentation by EtxB-31mer [2]: prevented
effect on MHC-I/SIINFEKL complexes in cells treated with EtxB-19mer or EtxB-31mer (JAWSII cells): no detectable MHC-I/SIINFEKL complexes were observed

Brefeldin A [BFA]
effect on direct loading and presentation of free 8mer peptide [1]: did not inhibit
effect on epitope delivery by EtxB-9mer, -16mer, -19mer, -26mer and -26mer* conjugates [1]: complete inhibition
effect on epitope presentation by EtxB-31mer [1]: prevented
effect on epitope delivery by EtxB-9mer, -16mer, -19mer, -26mer and -26mer* conjugates [2]: complete inhibition
effect on epitope presentation by EtxB-31mer [2]: prevented
effect on MHC-I/SIINFEKL complexes in cells treated with EtxB-19mer or EtxB-31mer (JAWSII cells): no detectable MHC-I/SIINFEKL complexes were observed

CAVGAGATAEESIINFEKL [19mer]
extent of class I epitope presentation (IL-2 release) (JAWSII dendritic cells): virtually no presentation occurred

CSIINFEKL [9mer]
extent of class I epitope presentation (IL-2 release) (JAWSII dendritic cells): significantly stimulated class I presentation

SIINFEKL [8mer]
extent of class I epitope presentation (IL-2 release) (JAWSII dendritic cells): significantly stimulated class I presentation
kinetics of class I peptide presentation (in words) (JAWSII dendritic cells): peptide presentation at the earliest time point tested
MHC-I/SIINFEKL complexes (shift in fluorescence) [3]: clear and similar shift in fluorescence
